Test results published in US20250282895A1, “PHARMACEUTICAL COMPOSITIONS OF CHEMOTHERAPEUTIC AGENTS BASED ON BETA-S[…]-AMINO ACID DERIVATIVES” (priority 2021, published 2025).
Structures can show the parent of a compound that is named as a salt.

Experiment: Comparative stability, Formulation 3 (based on Evomela, SBE6.5-β-CD)
Type: physicochemical
Description: The stability of Compound (1c) either as the HCl salt or as the free base was compared to the stability of melphalan HCl and/or bendamustine HCl in various pharmaceutical formulations and at different concentrations and at temperatures of 0° C. or 25° C.
The stability of the compounds in the pharmaceutical formulations was determined at concentrations within the range from 0.4 mg/mL to 0.5 mg/mL, from 0.9 mg/mL to 1.1 mg/mL, and from 1.8 mg/mL to 2.1 mg/mL.
The amount of the active pharmaceutical ingredient (API) (Compound (1c), melphalan or bendamustine) in the pharmaceutical formulations at different times during storage was determined using HPLC/UV as described in detail for Example 4 and Example 5.
Evomela® is an injectable formulation of melphalan hydrochloride, 4-[bis(2-chloroethyl)amino]-L-phenylalanine hydrochloride, approved by the FDA. Evomela® is supplied as a sterile white to off-white lyophilized powder in a single-dose vial for intravenous use. Each vial containing 50 mg melphalan free base equivalent to 56 mg melphalan hydrochloride and 2,700 mg betadex sulfobutyl ether (SBE6.5-β-CD; sulfobutyl ether β-cyclodextrin sodium) sodium, NF. Normal saline solution (0.9% Sodium Chloride Injection, USP) (8.6 mL as directed) is used to reconstitute Evomela® to a total of 10 mL having a 5 mg/mL nominal concentration of melphalan. The required volume of Evomela® needed for a patient dose is withdrawn from the vial(s) and added to the appropriate volume of 0.9% Sodium Chloride Injection, USP, to a final nominal concentration of 0.45 mg/mL of melphalan. This solution is then infused via an injection port or central venous catheter.
A series of 12 mL glass vials each containing 5.5 mg (0.0165 mmol of Compound (1c) free base and 270 mg of SBE6.5-β-CD, Captisol®) were prepared as described in Example 4.
The cyclodextrin derivative/Compound (1c) free base guest-host inclusion complex was reconstituted by dissolving the guest-host inclusion complex in 0.86 mL of 0.9% saline to provide 1.0 mL of a solution having a nominal concentration of 5.5 mg/mL of Compound (1c) free base.
(§1) A 1.0 mL aliquot of this solution was diluted with 10.0 mL of 0.9% saline, and the pH adjusted with 5 μL of a saturated aqueous NaHCO3 solution to provide 11.0 mL of a clear, colorless solution having a nominal concentration of 0.50 mg/mL of Compound (1c) from Compound (1c) free base and a pH from 5.8 to 6.1.
as §1, with “4.5” for “10.0”, “5.5” for “11.0”, “1.0” for “0.50”, “of about” for “from 5.8 to”
as §1, with “1.75” for “10.0”, “2.75” for “11.0”, “2.0” for “0.50”, “of about” for “from 5.8 to”
A series of 12 mL glass vials each containing 6.1 mg (0.0165 mmol of Compound (1c) mono-hydrochloride salt (corresponding to 5.5 mg of Compound (1c) free base) and 270 mg of SBE6.5-β-CD, Captisol®) were prepared as described in Example 5.
The cyclodextrin derivative/Compound (1c) mono-HCl salt guest-host inclusion complex was reconstituted by dissolving the guest-host inclusion complex in 0.86 mL of 0.9% saline to provide 1.0 mL of a solution having a nominal concentration of 6.1 mg/mL of Compound (1c) mono-HCl salt (corresponding to a nominal concentration of 5.5 mg/mL of the Compound (1c) free base).
as §1, with “0.5” for “1.0”, “5.0” for “10.0”, “5.5” for “11.0”, “mono-hydrochloride” for “free base”, “5.3” for “5.8”, “5.5. […]” for “6.1.”

[1] = Formulation 3, 0° C., 0.5 hours, 0.4-0.5 mg/mL, pH 5.8-6.1 (melphalan), pH 5-6 (Compound (1c)•HCl)
[2] = Formulation 3, 0° C., 2.0 hours, 0.4-0.5 mg/mL, pH 5.8-6.1 (melphalan), pH 5-6 (Compound (1c)•HCl)

SMILES	% API [1] [%]	% API [2] [%]	% API (Formulation 3, 25° C., 0.5 hours, 0.4-0.5 mg/mL, pH 5.8-6.1 (melphalan), pH 5-6 (Compound (1c)•HCl)) [%]	% API (Formulation 3, 25° C., 2.0 hours, 0.4-0.5 mg/mL, pH 5.8-6.1 (melphalan), pH 5-6 (Compound (1c)•HCl)) [%]	% API (Formulation 3, 0° C., 0.5 hours, 0.9-1.1 mg/mL, pH 5-6) [%]	% API (Formulation 3, 0° C., 0.5 hours, 1.8-2.1 mg/mL, pH 5-6) [%]	% API (Formulation 3, 0° C., 2.0 hours, 0.9-1.1 mg/mL, pH 5-6) [%]	% API (Formulation 3, 0° C., 2.0 hours, 1.8-2.1 mg/mL, pH 5-6) [%]	% API (Formulation 3, 25° C., 0.5 hours, 0.4-0.5 mg/mL, pH 5.8-6.1 (melphalan), pH 5-6 (Compound (1c)•HCl), mono hydrochloride salt) [%]	% API (Formulation 3, 25° C., 0.5 hours, 0.9-1.1 mg/mL, pH 5-6 (Compound (1c)•HCl), mono hydrochloride salt) [%]	% API (Formulation 3, 25° C., 0.5 hours, 1.8-2.1 mg/mL, pH 5-6 (Compound (1c)•HCl)) [%]	% API (Formulation 3, 25° C., 2.0 hours, 0.4-0.5 mg/mL, pH 5.8-6.1 (melphalan), pH 5-6 (Compound (1c)•HCl), mono hydrochloride salt) [%]	% API (Formulation 3, 25° C., 2.0 hours, 0.9-1.1 mg/mL, pH 5-6 (Compound (1c)•HCl), mono hydrochloride salt) [%]	% API (Formulation 3, 25° C., 2.0 hours, 1.8-2.1 mg/mL, pH 5-6 (Compound (1c)•HCl), mono hydrochloride salt) [%]
Cl.N[C@@H](Cc1ccc(N(CCCl)CCCl)cc1)C(=O)O [Melphalan•HCl, 4-[bis(2-chloroethyl)amino]-L-phenylalanine hydrochloride, reference compound]	97	92	97	92	–	–	–	–	–	–	–	–	–	–
Cc1ccc(N(CCCl)CCCl)cc1C[C@H](N)CC(=O)O [Compound (1c)•HCl, (S)-3-amino-4-(5-(bis(2-chloroethyl)amino)-2-methylphenyl) butanoic acid mono hydrochloride salt]	97	97	–	–	97	100	91	99	97	97	100	97	91	99
